For the data set the following is noted: Liquid; for mass density: 298.15 K, 101.33 kPa, Pycnometric method.

The values that follow come from the NIST ThermoML archive (doi:10.1016/j.jct.2018.12.040).

Numbers after ± are expanded uncertainties.

In the case of `O=[N+]([O-])C(C1CC1)(C1CC1)[N+](=O)[O-]` [dicyclopropyldinitromethane], the mass density – broadly, mass per unit of volume – is on record as 1239.7 ± 1 kg/m3. Besides, the Normal boiling temperature (boiling in a capillary) is 290 ± 3 °C.

Consider `C1CC1C(C1CC1)C1CC1` [tricyclopropylmethane], for which the mass density came out at 850 ± 1 kg/m3. For the same molecule, the Normal boiling temperature (Distillation) came to 160 ± 2 °C.
